Measured values from patent US8536231B2, “Methods for treating diabetic foot ulcers” (priority 2011, dated 2013).
Non-standard residues stand in square brackets, D forms with d. Residues, ends and D or L forms follow the SMILES beside them. Nle = CCCC[C@H](N)C(=O)O

System: diabetic foot ulcers
Conditions: human, in vivo
Procedure: The study was designed as a randomized, parallel-group, double-blind, placebo-controlled, multi-center trial. After 14-days of best-of-care to evaluate ulcer healing and ensure the wounds were chronic, four-weeks of active treatment were then followed by eight weeks of observation and assessment. The study compared the effects of two concentrations of NorLeu^3-A(1-7) and placebo, measuring both clinical efficacy and safety. Sustained tissue integrity was evaluated for all subjects during a follow-up period lasting 12 weeks after complete wound closure.
Subjects were randomized in a 1:1:1 ratio to one of the three treatment groups: • Group 1: Placebo Vehicle Control without NorLeu^3-A(1-7) (also referred to as “DSC127”) (2% Hydroxyethyl Cellulose (HEC) with 0.1% methyl paraben, 0.02% propyl paraben) • Group 2: 0.03% NorLeu^3-A(1-7) in Vehicle • Group 3: 0.01% NorLeu^3-A(1-7) in Vehicle
The four-week treatment period required daily application of the treatment to the wound site. The first application each week was at the clinic and for the remainder of the week the patient self-administered the treatment.
If wound healing occurred during the treatment or assessment periods a final assessment visit was conducted and the integrity was assessed 4 and 12 weeks later (usually weeks 16 and 24 of the study). […]

## CCCC[C@H](NC(=O)[C@H](CCCNC(=N)N)NC(=O)[C@@H](N)CC(=O)O)C(=O)N[C@@H](Cc1ccc(O)cc1)C(=O)N[C@H](C(=O)N[C@@H](Cc1c[nH]cn1)C(=O)N1CCC[C@H]1C(=O)O)[C@@H](C)CC [NorLeu^3-A(1-7), Asp-Arg-Nle-Tyr-Ile-His-Pro] (H-DR[Nle]YIHP-OH; N-terminus and C-terminus assumed)
  adverse events associated with treatment: no significant adverse events
  tolerability: well-tolerated
